Test results as given in publication PMC10112232, “Comparison of Toxicities among Different Bumped Kinase Inhibitor Analogs for Treatment of Cryptosporidiosis” (Antimicrobial Agents and Chemotherapy, 2023).
Read-outs that look alike come from different tables or passages of the source.

Tests used:
[1] = Multidose calf toxicity study; format: in vivo; details: calves
Protocol: Male and female calves were dosed orally with 7.5 or 15 mg/kg BID for 5 days. Adverse effects began on day 4, so the 7.5 mg/kg group received 9 doses total and the 15 mg/kg group received 7 doses total before the experiment was terminated.
A control group of male and female rats were administered vehicle only for controls. […] Observations of feeding and general health were made twice daily. Clinical assessments were made at 1 h after each treatment. Blood was collected for hematology and blood chemistry before the first dose and prior to euthanasia. Necropsy and histology of organs (Liver, heart, lung, kidney, spleen, thymus, brain, spinal cord, nerves of the front and back legs, including muscle, bone marrow femur, stomach, small and large intestine, including lymph nodes, and femur and sternum, including epiphyseal plates, distal hind limb, and thyroid gland) were performed after euthanasia.

[2] = molecular target: T1, C. parvum calcium dependent protein kinase 1 (CpCDPK1) (Cryptosporidium parvum, UniProt A3FQ16); design: method as in PMID 30830766; details: read-out: CpCDPK1 IC50; cited from earlier work
T1 sequence (A3FQ16 1-538): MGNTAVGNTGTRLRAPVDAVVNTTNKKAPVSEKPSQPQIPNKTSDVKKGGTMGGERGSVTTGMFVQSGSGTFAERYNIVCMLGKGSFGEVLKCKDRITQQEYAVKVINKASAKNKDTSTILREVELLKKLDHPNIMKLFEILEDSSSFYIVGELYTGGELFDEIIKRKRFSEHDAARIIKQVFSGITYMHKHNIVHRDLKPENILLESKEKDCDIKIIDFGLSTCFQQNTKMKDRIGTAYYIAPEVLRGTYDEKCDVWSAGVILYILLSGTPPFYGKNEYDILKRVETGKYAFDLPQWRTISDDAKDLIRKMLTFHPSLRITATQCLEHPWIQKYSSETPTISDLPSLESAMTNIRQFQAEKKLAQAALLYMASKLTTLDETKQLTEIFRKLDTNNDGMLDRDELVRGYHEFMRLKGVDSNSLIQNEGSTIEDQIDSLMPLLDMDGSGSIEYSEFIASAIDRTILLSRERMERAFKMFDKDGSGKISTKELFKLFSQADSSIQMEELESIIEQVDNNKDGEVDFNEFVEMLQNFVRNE

[3] = cited from earlier work; for CO / HR / MAP / PR / QRS / QTcV / SVR / dp/dt@50: dog, IV 0.02 mL/kg/min
hERG = hERG (Homo sapiens, UniProt Q12809); assay: In vitro inhibition of hERG; format: biochemical
Sequence of hERG (Q12809 whole entry): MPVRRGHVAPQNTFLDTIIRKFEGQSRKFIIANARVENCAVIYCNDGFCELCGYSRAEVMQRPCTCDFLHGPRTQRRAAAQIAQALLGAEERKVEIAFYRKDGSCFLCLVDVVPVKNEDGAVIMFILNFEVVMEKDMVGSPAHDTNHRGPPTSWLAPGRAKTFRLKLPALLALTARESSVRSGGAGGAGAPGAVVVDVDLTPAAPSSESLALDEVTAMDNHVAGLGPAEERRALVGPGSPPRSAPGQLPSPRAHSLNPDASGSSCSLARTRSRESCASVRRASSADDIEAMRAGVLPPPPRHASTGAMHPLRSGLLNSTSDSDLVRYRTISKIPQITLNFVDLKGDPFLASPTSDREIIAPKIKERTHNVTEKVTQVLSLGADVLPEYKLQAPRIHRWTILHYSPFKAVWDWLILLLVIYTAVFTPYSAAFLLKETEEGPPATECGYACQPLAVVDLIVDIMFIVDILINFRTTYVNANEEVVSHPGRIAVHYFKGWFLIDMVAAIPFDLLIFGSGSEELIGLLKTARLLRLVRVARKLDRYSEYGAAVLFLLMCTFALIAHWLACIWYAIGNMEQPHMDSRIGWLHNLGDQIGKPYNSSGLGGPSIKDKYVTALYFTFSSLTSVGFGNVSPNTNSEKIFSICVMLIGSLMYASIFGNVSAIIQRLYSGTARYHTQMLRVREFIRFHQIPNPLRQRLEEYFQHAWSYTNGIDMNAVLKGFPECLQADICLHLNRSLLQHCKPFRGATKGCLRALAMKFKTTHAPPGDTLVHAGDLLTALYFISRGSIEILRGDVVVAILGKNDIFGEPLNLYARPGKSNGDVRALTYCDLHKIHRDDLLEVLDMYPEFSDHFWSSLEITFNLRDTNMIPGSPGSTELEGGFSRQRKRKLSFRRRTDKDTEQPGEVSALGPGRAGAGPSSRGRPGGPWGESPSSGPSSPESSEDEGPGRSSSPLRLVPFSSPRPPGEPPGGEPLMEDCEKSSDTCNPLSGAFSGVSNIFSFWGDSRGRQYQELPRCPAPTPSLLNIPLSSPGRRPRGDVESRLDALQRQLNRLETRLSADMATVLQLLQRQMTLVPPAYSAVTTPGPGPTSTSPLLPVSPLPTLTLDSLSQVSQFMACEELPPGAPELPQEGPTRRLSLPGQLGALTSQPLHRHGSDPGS
Text: Methods for synthesis of BKIs ([17], [23]), efficacy against Nluc expressing C. parvum in infected adult IFN-γ KO mice ([6], [9]), in vivo mouse GI tract tissue exposure by LC/MS-MS analysis ([18], [28]), PK analysis of mouse plasma and brain tissue BKI concentrations by LC/MS-MS analysis ([29]), in vivo rat and dog cardiotoxicity screen ([30]), efficacy against IOWA-II strain C. parvum in infected neonatal calves ([13]), efficacy against C. hominis in infected piglets ([12]), in vitro inhibition of C. parvum CDPK1 (CpCDPK1) and human tyrosine kinase SRC (HsSRC) activity ([31]), in vitro inhibition of hERG ([32]), Nluc expressing C. parvum in vitro growth inhibition in infected HCT-8 cells ([6]), in vitro cytotoxicity in CRL-8155 and HepG2 cells ([29]), and mouse locomotor activity box ([33], [34]) have all been previously described. Analytes were measured by LC/MS-MS on an Acquity ultra performance liquid chromatography (UPLC) system in tandem with a Xevo TQ-S mass spectrometer (Waters, Milford, MA, USA).

CCOc1ccc2cc(-c3nn(C(C)(C)CCO)c(N)c3C(N)=O)ccc2c1 [BKI-1770]
bone findings ([1]; both 7.5 and 15 mg/kg BID groups): changes to the epiphyseal growth plates in the femur and sternum | locomotion findings ([1]; oral 15 mg/kg BID, 7 doses total): locomotion problems on days 2 and 3 | IC50 [2]: 2 nM | effects on MAP, HR, contractility, SVR, CO, QTcV, QRS, PR vs control ([3]; anesthetized dogs, 0.02 mL/kg/min, 150 min): No appreciable effects | CO ([3]; 15 min): 0% | HR ([3]; 15 min): 4% | MAP ([3]; 15 min): 2% | PR ([3]; 15 min): -3 ms | QRS ([3]; 15 min): 0 ms | QTcV ([3]; 15 min): 4 ms | SVR ([3]; 15 min): 2% | dp/dt@50 ([3]; 15 min): 1% | CO ([3]; 30 min): 4% | HR ([3]; 30 min): 5% | MAP ([3]; 30 min): 2% | PR ([3]; 30 min): 0 ms | QRS ([3]; 30 min): 0 ms | QTcV ([3]; 30 min): 1 ms | SVR ([3]; 30 min): -1% | dp/dt@50 ([3]; 30 min): 0% | CO ([3]; 45 min): 3% | HR ([3]; 45 min): 8% | MAP ([3]; 45 min): 2% | PR ([3]; 45 min): -1 ms | QRS ([3]; 45 min): -1 ms | QTcV ([3]; 45 min): 1 ms | SVR ([3]; 45 min): -2% | dp/dt@50 ([3]; 45 min): 1% | CO ([3]; 60 min): -1% | HR ([3]; 60 min): 9% | MAP ([3]; 60 min): 2% | PR ([3]; 60 min): -1 ms | QRS ([3]; 60 min): -2 ms | QTcV ([3]; 60 min): -1 ms | SVR ([3]; 60 min): 2% | dp/dt@50 ([3]; 60 min): -1% | CO ([3]; 75 min): -1% | HR ([3]; 75 min): 9% | MAP ([3]; 75 min): 0% | PR ([3]; 75 min): -1 ms | QRS ([3]; 75 min): -2 ms | QTcV ([3]; 75 min): -3 ms | SVR ([3]; 75 min): 1% | dp/dt@50 ([3]; 75 min): -2% | CO ([3]; 90 min): -9% | HR ([3]; 90 min): 10% | MAP ([3]; 90 min): -1% | PR ([3]; 90 min): 0 ms | QRS ([3]; 90 min): -2 ms | QTcV ([3]; 90 min): -2 ms | SVR ([3]; 90 min): 8% | dp/dt@50 ([3]; 90 min): -6% | CO ([3]; 105 min): -4% | HR ([3]; 105 min): 9% | MAP ([3]; 105 min): -2% | PR ([3]; 105 min): 0 ms | QRS ([3]; 105 min): -3 ms | QTcV ([3]; 105 min): -1 ms | SVR ([3]; 105 min): 2% | dp/dt@50 ([3]; 105 min): -7% | CO ([3]; 120 min): -5% | HR ([3]; 120 min): 10% | MAP ([3]; 120 min): -2% | PR ([3]; 120 min): -1 ms | QRS ([3]; 120 min): -2 ms | QTcV ([3]; 120 min): 0 ms | SVR ([3]; 120 min): 4% | dp/dt@50 ([3]; 120 min): -7% | CO ([3]; 135 min): -8% | HR ([3]; 135 min): 11% | MAP ([3]; 135 min): -3% | PR ([3]; 135 min): -1 ms | QRS ([3]; 135 min): -1 ms | QTcV ([3]; 135 min): -2 ms | SVR ([3]; 135 min): 7% | dp/dt@50 ([3]; 135 min): -7% | CO ([3]; 150 min): -7% | HR ([3]; 150 min): 13% | MAP ([3]; 150 min): -5% | PR ([3]; 150 min): -2 ms | QRS ([3]; 150 min): -1 ms | QTcV ([3]; 150 min): -1 ms | SVR ([3]; 150 min): 4% | dp/dt@50 ([3]; 150 min): -7% | signs of cardiotoxicity ([3]; dogs): no signs of cardiotoxicity

CCOc1ccc2cc(-c3nn(C4CCOCC4)c(N)c3C(N)=O)ccc2n1 [BKI-1841]
IC50 (hERG): > 30000 nM
